Source: patent EP4722207A1, “OXOISOINDOLINYL-SUBSTITUTED TETRAHYDROPYRIMIDINEDIONE DERIVATIVE AND USE THEREOF” (Gluetacs Therapeutics (Shanghai) Co., Ltd., priority 2023, dated 2024)

Columns and labels:
Format in all cases: cell-based
WEE1 = molecular target: T1, WEE1 (Homo sapiens, UniProt P30291+Q96SW2); experiment: Western-blot assay, substrate protein degradation in hPBMCs: WEE1; details: for WEE1 substrate protein remaining %: compounds at 50 nM and 500 nM, 24 hours; for substrate protein remaining % WEE1: 24 hours of compound treatment, 50 nM and 500 nM
T1 construct: effects of the compounds of the present disclosure on the expression of target proteins in cells; endogenous in cells; host or cells: human PBMCs (hPBMCs)

IKZF1 = molecular target: T2, IKZF1 (Homo sapiens, UniProt Q13422+Q96SW2); experiment: Western-blot assay, substrate protein degradation in hPBMCs: IKZF1; details: for IKZF1 substrate protein remaining %: compounds at 50 nM and 500 nM, 24 hours; for substrate protein remaining % IKZF1: 24 hours of compound treatment, 50 nM and 500 nM
T2 construct: effects of the compounds of the present disclosure on the expression of target proteins in cells; endogenous in cells; host or cells: human PBMCs (hPBMCs)

IKZF2 = molecular target: T3, IKZF2 (Homo sapiens, UniProt Q96SW2+Q9UKS7); experiment: Western-blot assay, substrate protein degradation in hPBMCs: IKZF2; details: for IKZF2 substrate protein remaining %: compounds at 50 nM and 500 nM, 24 hours; for substrate protein remaining % IKZF2: 24 hours of compound treatment, 50 nM and 500 nM
T3 construct: effects of the compounds of the present disclosure on the expression of target proteins in cells; endogenous in cells; host or cells: human PBMCs (hPBMCs)

IKZF3 = molecular target: T4, IKZF3 (Homo sapiens, UniProt Q96SW2+Q9UKT9); experiment: Western-blot assay, substrate protein degradation in hPBMCs: IKZF3; details: for IKZF3 substrate protein remaining %: compounds at 50 nM and 500 nM, 24 hours; for substrate protein remaining % IKZF3: 24 hours of compound treatment, 50 nM and 500 nM
T4 construct: effects of the compounds of the present disclosure on the expression of target proteins in cells; endogenous in cells; host or cells: human PBMCs (hPBMCs)

CK1α = molecular target: T5, CK1α (Homo sapiens, UniProt P48729+Q96SW2); experiment: Western-blot assay, substrate protein degradation in hPBMCs: CK1α; details: for CK1α substrate protein remaining %: compounds at 50 nM and 500 nM, 24 hours; for substrate protein remaining % CK1α: 24 hours of compound treatment, 50 nM and 500 nM
T5 construct: effects of the compounds of the present disclosure on the expression of target proteins in cells; endogenous in cells; host or cells: human PBMCs (hPBMCs)

GSPT1 = molecular target: T6, GSPT1 (Homo sapiens, UniProt P15170+Q96SW2); experiment: Western-blot assay, substrate protein degradation in hPBMCs: GSPT1; details: for GSPT1 substrate protein remaining %: compounds at 50 nM and 500 nM, 24 hours; for substrate protein remaining % GSPT1: 24 hours of compound treatment, 50 nM and 500 nM
T6 construct: effects of the compounds of the present disclosure on the expression of target proteins in cells; endogenous in cells; host or cells: human PBMCs (hPBMCs)
T6 sequence (P15170 whole entry): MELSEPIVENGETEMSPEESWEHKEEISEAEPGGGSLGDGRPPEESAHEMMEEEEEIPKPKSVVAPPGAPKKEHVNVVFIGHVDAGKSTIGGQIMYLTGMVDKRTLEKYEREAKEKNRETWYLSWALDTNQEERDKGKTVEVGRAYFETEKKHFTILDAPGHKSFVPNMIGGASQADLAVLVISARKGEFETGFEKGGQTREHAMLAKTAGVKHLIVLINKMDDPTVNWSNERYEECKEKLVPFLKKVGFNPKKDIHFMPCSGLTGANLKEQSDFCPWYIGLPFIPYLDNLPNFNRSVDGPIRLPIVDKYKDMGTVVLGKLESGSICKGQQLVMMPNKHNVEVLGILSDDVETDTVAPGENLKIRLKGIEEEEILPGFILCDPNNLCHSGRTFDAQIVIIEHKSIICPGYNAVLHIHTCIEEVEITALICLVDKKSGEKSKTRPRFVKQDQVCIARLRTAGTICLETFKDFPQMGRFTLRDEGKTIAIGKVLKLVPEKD
T6 sequence (Q96SW2 whole entry): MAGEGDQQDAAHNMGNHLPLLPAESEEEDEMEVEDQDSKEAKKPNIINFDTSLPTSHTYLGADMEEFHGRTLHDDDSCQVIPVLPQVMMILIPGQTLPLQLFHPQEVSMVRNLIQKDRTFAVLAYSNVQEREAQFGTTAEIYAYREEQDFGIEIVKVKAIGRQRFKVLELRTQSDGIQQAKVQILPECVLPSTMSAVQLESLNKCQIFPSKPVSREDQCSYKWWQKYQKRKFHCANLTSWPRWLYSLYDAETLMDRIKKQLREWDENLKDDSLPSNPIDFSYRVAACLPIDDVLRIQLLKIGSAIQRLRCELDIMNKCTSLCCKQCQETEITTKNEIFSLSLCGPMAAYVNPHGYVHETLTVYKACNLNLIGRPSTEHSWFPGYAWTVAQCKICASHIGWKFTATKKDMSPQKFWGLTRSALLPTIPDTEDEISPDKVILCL
T6 sequence (Q16531 whole entry partner): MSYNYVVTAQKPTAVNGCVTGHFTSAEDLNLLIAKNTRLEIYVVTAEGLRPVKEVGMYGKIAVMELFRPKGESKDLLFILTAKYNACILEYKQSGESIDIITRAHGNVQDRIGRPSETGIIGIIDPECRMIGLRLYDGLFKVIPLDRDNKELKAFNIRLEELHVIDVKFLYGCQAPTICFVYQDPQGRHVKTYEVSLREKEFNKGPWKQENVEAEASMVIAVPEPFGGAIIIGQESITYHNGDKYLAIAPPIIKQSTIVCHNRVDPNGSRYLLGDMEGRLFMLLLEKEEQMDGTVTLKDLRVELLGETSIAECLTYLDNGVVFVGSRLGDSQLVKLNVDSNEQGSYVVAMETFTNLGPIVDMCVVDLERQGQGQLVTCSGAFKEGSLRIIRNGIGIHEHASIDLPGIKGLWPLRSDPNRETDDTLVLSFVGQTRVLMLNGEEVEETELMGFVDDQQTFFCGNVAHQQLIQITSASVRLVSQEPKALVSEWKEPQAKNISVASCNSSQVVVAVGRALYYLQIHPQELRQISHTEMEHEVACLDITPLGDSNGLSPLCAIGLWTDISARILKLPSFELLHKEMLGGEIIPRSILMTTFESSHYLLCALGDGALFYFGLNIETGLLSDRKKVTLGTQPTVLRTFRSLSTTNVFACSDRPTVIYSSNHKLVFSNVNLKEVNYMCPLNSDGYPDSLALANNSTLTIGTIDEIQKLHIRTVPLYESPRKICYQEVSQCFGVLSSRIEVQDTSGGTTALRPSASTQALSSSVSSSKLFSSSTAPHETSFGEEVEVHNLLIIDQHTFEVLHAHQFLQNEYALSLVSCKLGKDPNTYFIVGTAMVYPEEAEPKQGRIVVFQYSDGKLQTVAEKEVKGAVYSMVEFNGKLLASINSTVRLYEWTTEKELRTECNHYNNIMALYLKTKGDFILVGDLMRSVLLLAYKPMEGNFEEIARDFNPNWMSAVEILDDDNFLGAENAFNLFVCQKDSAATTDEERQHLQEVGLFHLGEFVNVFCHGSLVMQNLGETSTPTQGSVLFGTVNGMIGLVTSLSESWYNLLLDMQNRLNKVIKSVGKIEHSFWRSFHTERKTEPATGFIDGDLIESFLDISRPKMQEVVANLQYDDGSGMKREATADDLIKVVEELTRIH

T4 sequence (Q9UKT9 whole entry): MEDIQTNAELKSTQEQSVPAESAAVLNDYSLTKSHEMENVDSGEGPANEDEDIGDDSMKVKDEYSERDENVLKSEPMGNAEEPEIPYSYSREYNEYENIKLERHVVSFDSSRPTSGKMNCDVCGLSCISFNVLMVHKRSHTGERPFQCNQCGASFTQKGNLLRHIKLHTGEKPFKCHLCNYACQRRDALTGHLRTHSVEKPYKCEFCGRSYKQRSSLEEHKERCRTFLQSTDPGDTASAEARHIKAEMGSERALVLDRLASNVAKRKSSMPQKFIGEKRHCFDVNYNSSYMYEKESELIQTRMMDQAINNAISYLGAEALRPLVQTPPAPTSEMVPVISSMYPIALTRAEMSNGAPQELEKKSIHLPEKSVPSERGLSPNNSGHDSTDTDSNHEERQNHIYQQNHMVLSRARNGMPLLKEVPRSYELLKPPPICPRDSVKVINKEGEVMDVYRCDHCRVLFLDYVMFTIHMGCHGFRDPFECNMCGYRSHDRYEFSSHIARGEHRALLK
T4 sequence (Q96SW2 whole entry): as the sequence (Q96SW2 whole entry) above
T4 sequence (Q16531 whole entry partner): as the sequence (Q16531 whole entry partner) above
T2 sequence (Q13422 whole entry): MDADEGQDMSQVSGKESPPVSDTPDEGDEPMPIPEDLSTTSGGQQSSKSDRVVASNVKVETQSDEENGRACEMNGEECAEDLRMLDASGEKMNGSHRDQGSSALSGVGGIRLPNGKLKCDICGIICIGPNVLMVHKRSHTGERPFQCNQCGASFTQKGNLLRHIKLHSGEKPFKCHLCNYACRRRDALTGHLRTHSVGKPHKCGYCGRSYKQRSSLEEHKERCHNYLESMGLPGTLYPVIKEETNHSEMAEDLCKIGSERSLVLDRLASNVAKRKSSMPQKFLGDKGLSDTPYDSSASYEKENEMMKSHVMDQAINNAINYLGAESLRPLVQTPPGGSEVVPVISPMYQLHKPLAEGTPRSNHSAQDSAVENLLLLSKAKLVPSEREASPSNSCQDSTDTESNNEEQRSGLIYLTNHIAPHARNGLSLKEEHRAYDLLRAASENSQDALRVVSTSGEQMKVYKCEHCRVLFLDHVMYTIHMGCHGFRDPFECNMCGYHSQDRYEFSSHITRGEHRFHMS
T2 sequence (Q96SW2 whole entry): as the sequence (Q96SW2 whole entry) above
T2 sequence (Q16531 whole entry partner): as the sequence (Q16531 whole entry partner) above
T1 sequence (P30291 whole entry): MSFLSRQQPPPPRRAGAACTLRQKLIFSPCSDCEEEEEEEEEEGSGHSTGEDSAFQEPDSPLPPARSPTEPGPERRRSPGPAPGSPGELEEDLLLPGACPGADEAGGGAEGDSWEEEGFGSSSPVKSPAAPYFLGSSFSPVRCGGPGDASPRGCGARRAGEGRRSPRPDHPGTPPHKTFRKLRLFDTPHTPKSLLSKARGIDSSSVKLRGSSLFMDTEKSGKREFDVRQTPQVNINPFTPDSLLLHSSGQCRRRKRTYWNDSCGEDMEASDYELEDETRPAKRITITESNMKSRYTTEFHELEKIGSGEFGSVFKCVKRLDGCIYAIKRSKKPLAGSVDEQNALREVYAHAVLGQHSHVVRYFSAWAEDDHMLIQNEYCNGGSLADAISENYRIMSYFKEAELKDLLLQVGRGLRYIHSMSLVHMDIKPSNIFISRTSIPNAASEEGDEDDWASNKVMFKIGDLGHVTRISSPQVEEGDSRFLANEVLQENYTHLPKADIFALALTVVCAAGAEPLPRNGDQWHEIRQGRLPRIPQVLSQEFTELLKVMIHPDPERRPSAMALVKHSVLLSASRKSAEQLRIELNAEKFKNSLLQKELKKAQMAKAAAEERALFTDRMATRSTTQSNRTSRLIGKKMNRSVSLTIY
T1 sequence (Q96SW2 whole entry): as the sequence (Q96SW2 whole entry) above
T1 sequence (Q16531 whole entry partner): as the sequence (Q16531 whole entry partner) above
T5 sequence (P48729 whole entry): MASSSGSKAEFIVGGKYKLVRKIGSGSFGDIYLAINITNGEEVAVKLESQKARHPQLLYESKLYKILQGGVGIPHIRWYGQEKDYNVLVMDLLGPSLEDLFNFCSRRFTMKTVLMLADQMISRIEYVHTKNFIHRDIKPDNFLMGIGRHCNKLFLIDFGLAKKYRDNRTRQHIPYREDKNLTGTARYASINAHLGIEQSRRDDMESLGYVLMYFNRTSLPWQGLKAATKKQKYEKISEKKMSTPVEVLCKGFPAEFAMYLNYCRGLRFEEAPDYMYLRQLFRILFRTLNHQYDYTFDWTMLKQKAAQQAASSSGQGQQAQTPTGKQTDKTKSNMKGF
T5 sequence (Q96SW2 whole entry): as the sequence (Q96SW2 whole entry) above
T5 sequence (Q16531 whole entry partner): as the sequence (Q16531 whole entry partner) above

SMILES	WEE1 substrate protein remaining % (WEE1)	IKZF1 substrate protein remaining % (IKZF1)	IKZF2 substrate protein remaining % (IKZF2)	IKZF3 substrate protein remaining % (IKZF3)	CK1α substrate protein remaining % (CK1α)	GSPT1 substrate protein remaining % (GSPT1)	substrate protein remaining % WEE1 (WEE1)	substrate protein remaining % IKZF1 (IKZF1)	substrate protein remaining % IKZF2 (IKZF2)	substrate protein remaining % IKZF3 (IKZF3)	substrate protein remaining % CK1α (CK1α)	substrate protein remaining % GSPT1 (GSPT1)
COc1ccc(N2CCN(Cc3ccc4c(c3)C(=O)N(N3CCC(=O)NC3=O)C4=O)CC2)cc1 [GT-06728, 2-(2,4-dioxotetrahydropyrimidin-1(2H)-yl)-5-((4-(4-methoxyphenyl)piperazin-1-yl)methyl)isoindoline-1,3-dione]	B ("B" is defined as 80%< substrate protein remaining %≤ 100%)	B ("B" is defined as 80%< substrate protein remaining %≤ 100%)	A ("A" is defined as 0% ≤ substrate protein remaining % ≤ 80%)	A ("A" is defined as 0% ≤ substrate protein remaining % ≤ 80%)	A ("A" is defined as 0% ≤ substrate protein remaining % ≤ 80%)	B ("B" is defined as 80%< substrate protein remaining %≤ 100%)						
CC1(C)CCC(CN2CC3CCC2CN3Cc2ccc3c(c2)C(=O)N(N2CCC(=O)NC2=O)C3=O)=C(c2ccc(Cl)cc2)C1 (stereo not drawn) [GT-07300, 5-((5-((4'-chloro-5,5-dimethyl-3,4,5,6-tetrahydro-[1,1'-biphenyl]-2-yl)methyl)-2,5-diazabicyclo[2.2.2]octan-2-yl)methyl)-2-(2,4-dioxotetrahydropyrimidin-1(2H)-yl)isoindoline-1,3-dione]							A (0% ≤ substrate protein remaining % ≤ 80%)	B (80%< substrate protein remaining %≤ 100%)	B (80%< substrate protein remaining %≤ 100%)	B (80%< substrate protein remaining %≤ 100%)	B (80%< substrate protein remaining %≤ 100%)	B (80%< substrate protein remaining %≤ 100%)
Cc1cc(N2CCN(Cc3ccc4c(c3)C(=O)N(N3CCC(=O)NC3=O)C4=O)CC2)ccn1 [GT-07161, 2-(2,4-dioxotetrahydropyrimidin-1(2H)-yl)-5-((4-(2-methylpyridin-4-yl)piperazin-1-yl)methyl)isoindoline-1,3-dione]	B ("B" is defined as 80%< substrate protein remaining %≤ 100%)	B ("B" is defined as 80%< substrate protein remaining %≤ 100%)	A ("A" is defined as 0% ≤ substrate protein remaining % ≤ 80%)	B ("B" is defined as 80%< substrate protein remaining %≤ 100%)	B ("B" is defined as 80%< substrate protein remaining %≤ 100%)	A ("A" is defined as 0% ≤ substrate protein remaining % ≤ 80%)						
O=C1CCN(N2C(=O)c3ccc(CN4CCC(n5c(=O)[nH]c6cc(F)ccc65)CC4)cc3C2=O)C(=O)N1 [GT-07583, 2-(2,4-dioxotetrahydropyrimidin-1(2H)-yl)-5-((4-(5-fluoro-2-oxo-2,3-dihydro-1H-benzo[d]imidazol-1-yl)piperidin-1-yl)methyl)isoindoline-1,3-dione]							A (0% ≤ substrate protein remaining % ≤ 80%)	B (80%< substrate protein remaining %≤ 100%)	B (80%< substrate protein remaining %≤ 100%)	B (80%< substrate protein remaining %≤ 100%)	B (80%< substrate protein remaining %≤ 100%)	A (0% ≤ substrate protein remaining % ≤ 80%)
O=C1CCN(N2C(=O)c3ccc(CN4CCN(c5noc6cc(F)ccc56)CC4)cc3C2=O)C(=O)N1 [GT-07524, 2-(2,4-dioxotetrahydropyrimidin-1(2H)-yl)-5-((4-(6-fluorobenzo[d]isoxazol-3-yl)piperazin-1-yl)methyl)isoindoline-1,3-dione]							A (0% ≤ substrate protein remaining % ≤ 80%)	A (0% ≤ substrate protein remaining % ≤ 80%)	A (0% ≤ substrate protein remaining % ≤ 80%)	B (80%< substrate protein remaining %≤ 100%)	B (80%< substrate protein remaining %≤ 100%)	A (0% ≤ substrate protein remaining % ≤ 80%)
O=C1CCN(N2C(=O)c3ccc(CN4CCC(c5cccc6c(F)cccc56)CC4)cc3C2=O)C(=O)N1 [GT-07686, 2-(2,4-dioxotetrahydropyrimidin-1(2H)-yl)-5-((4-(5-fluoronaphthalen-1-yl)piperidin-1-yl)methyl)isoindoline-1,3-dione]							B (80%< substrate protein remaining %≤ 100%)	B (80%< substrate protein remaining %≤ 100%)	B (80%< substrate protein remaining %≤ 100%)	B (80%< substrate protein remaining %≤ 100%)	B (80%< substrate protein remaining %≤ 100%)	A (0% ≤ substrate protein remaining % ≤ 80%)
O=C1CCN(N2Cc3cc(CN4CCN(c5cnccn5)CC4)ccc3C2=O)C(=O)N1 [GT-07160, 1-(1-oxo-5-((4-(pyrazin-2-yl)piperazin-1-yl)methyl)isoindolin-2-yl)dihydropyrimidine-2,4(1H,3H)-dione]	B ("B" is defined as 80%< substrate protein remaining %≤ 100%)	B ("B" is defined as 80%< substrate protein remaining %≤ 100%)	A ("A" is defined as 0% ≤ substrate protein remaining % ≤ 80%)	B ("B" is defined as 80%< substrate protein remaining %≤ 100%)	A ("A" is defined as 0% ≤ substrate protein remaining % ≤ 80%)	A ("A" is defined as 0% ≤ substrate protein remaining % ≤ 80%)						
O=C1CCN(N2C(=O)c3ccc(CN4CCN(c5ccc(Cl)cn5)CC4)cc3C2=O)C(=O)N1 [GT-05350, 5-((4-(5-chloropyridin-2-yl)piperazin-1-yl)methyl)-2-(2,4-dioxotetrahydropyrimidin-1(2H)-yl)isoindoline-1,3-dione]	B ("B" is defined as 80%< substrate protein remaining %≤ 100%)	B ("B" is defined as 80%< substrate protein remaining %≤ 100%)	B ("B" is defined as 80%< substrate protein remaining %≤ 100%)	B ("B" is defined as 80%< substrate protein remaining %≤ 100%)	B ("B" is defined as 80%< substrate protein remaining %≤ 100%)	A ("A" is defined as 0% ≤ substrate protein remaining % ≤ 80%)						
O=C1CCN(N2Cc3cc(CN4CCN(C(c5ccccc5)c5ccncc5)CC4)ccc3C2=O)C(=O)N1 (stereo not drawn) [GT-04891, 1-(1-oxo-5-((4-(phenyl(pyridin-4-yl)methyl)piperazin-1-yl)methyl)isoindolin-2-yl)dihydropyrimidine-2,4(1H,3H)-dione]	B ("B" is defined as 80%< substrate protein remaining %≤ 100%)	A ("A" is defined as 0% ≤ substrate protein remaining % ≤ 80%)	A ("A" is defined as 0% ≤ substrate protein remaining % ≤ 80%)	B ("B" is defined as 80%< substrate protein remaining %≤ 100%)	B ("B" is defined as 80%< substrate protein remaining %≤ 100%)	A ("A" is defined as 0% ≤ substrate protein remaining % ≤ 80%)						
O=C1CCN(N2Cc3cc(CN4CCN(c5ccc(F)cn5)CC4)ccc3C2=O)C(=O)N1 [GT-05131, 1-(5-((4-(5-fluoropyridin-2-yl)piperazin-1-yl)methyl)-1-oxoisoindolin-2-yl)dihydropyrimidine-2,4(1H,3H)-dione]	A ("A" is defined as 0% ≤ substrate protein remaining % ≤ 80%)	A ("A" is defined as 0% ≤ substrate protein remaining % ≤ 80%)	A ("A" is defined as 0% ≤ substrate protein remaining % ≤ 80%)	A ("A" is defined as 0% ≤ substrate protein remaining % ≤ 80%)	A ("A" is defined as 0% ≤ substrate protein remaining % ≤ 80%)	A ("A" is defined as 0% ≤ substrate protein remaining % ≤ 80%)						
Cc1cc(C2CCN(Cc3ccc4c(c3)CN(N3CCC(=O)NC3=O)C4=O)CC2)cs1 [GT-07373, 1-(5-((4-(5-methylthiophen-3-yl)piperidin-1-yl)methyl)-1-oxoisoindolin-2-yl)dihydropyrimidine-2,4(1H,3H)-dione]							B (80%< substrate protein remaining %≤ 100%)	B (80%< substrate protein remaining %≤ 100%)	B (80%< substrate protein remaining %≤ 100%)	A (0% ≤ substrate protein remaining % ≤ 80%)	B (80%< substrate protein remaining %≤ 100%)	A (0% ≤ substrate protein remaining % ≤ 80%)
